Values quoted from earlier work, collected in US20030099599A1, “Antibiotic spray” (priority 2001, published 2003).

Tested on: group A streptococcal tonsillopharyngitis
Conditions: recurrence within 2 months

penicillin
GAS tonsillopharyngitis treated with penicillin that recurs: About 25%
